According to PMC9032570, “Flavonoids and Phenols, the Potential Anti-Diabetic Compounds from Bauhinia strychnifolia Craib. Stem” (Molecules, 2022):
Converted amounts (≈) assume the structure as drawn. Where two headings read alike, the source gives them in different places.

Key:
[1] = biological target: T1, dipeptidyl peptidase-IV (DPP-IV) from porcine kidney (Sus scrofa, UniProt P22411); experiment: Dipeptidyl peptidase-IV (DPP-IV) inhibitory assay (GP-p-NA substrate); type: biochemical
T1 construct: purchased Sigma Aldrich Inc. (St. Louis, MO. USA); host or cells: porcine kidney (tissue-derived enzyme)
T1 sequence (P22411 whole entry): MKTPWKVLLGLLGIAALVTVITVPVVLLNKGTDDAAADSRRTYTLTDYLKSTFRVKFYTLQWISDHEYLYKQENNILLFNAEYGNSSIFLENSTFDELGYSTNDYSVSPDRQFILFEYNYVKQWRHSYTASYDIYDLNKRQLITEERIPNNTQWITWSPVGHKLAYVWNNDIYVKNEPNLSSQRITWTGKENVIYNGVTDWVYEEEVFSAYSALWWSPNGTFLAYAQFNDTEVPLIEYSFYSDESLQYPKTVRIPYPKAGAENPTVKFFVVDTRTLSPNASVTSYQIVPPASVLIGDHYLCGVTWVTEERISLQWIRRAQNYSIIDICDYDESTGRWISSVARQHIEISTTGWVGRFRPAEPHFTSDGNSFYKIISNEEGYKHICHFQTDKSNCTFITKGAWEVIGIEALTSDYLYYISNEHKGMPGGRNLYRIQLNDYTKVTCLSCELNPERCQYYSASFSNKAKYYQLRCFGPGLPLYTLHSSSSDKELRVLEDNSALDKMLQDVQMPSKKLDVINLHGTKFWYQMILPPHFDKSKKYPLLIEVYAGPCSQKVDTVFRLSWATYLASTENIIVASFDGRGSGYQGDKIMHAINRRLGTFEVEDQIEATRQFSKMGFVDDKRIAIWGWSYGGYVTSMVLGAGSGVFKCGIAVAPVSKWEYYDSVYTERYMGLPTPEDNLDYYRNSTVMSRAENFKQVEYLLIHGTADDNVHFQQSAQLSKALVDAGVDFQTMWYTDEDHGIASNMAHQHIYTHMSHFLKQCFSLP
Excerpt: (§1) Folin–Ciocalteu reagent was bought from Merck (Darmstadt, Germany). Fetal bovine serum (FBS), penicillin-streptomycin, Dulbecco’s Modified Eagle Medium, high glucose (DMEM, high glucose), Roswell Park Memorial Institute (RPMI) 1640 medium, trypsin-EDTA, trypan blue dyes, and 3-(4,5-dimethylthiazol-2-yl)-2,5 diphenyltetrazolium bromide (MTT) were obtained from Thermo Fisher Scientific (Waltham, CA, USA). Ethanol, methanol, hexane, dichloromethane, ethyl acetate, and acetone (as analytical grades) were purchased from Labscan Asia Co., Bangkok, Thailand.
The DPP-IV inhibition activities of crude extract, partitioned fractions, and isolated pure compounds were investigated, following the procedure of Van et al. (2009) and Al-Masri et al. (2009), with some modifications. Concisely, 40 µL of each sample diluted in 50 mM Tris-HCl buffer, pH 8.0 (at final concentration 50 ug/mL), was pre-incubated with 30 µL of 0.05 U/mL of DPP-IV enzyme at 37 °C. After 10 min, 100 µL of 0.2 mM GP-p-NA substrate was added to the solution and further incubated for 30 min. Then, the reaction was terminated with 30 µL of 25% acetic acid, and the absorbance at 405 nm was suddenly measured by a microplate reader (DTX880 Multimode Detector, Beckman Coulter®, Wein, Austria). The percentage of inhibition was calculated, following the formula: [(Acontrol − Asample)/Acontrol] × 100, where Acontrol and Asample were the absorbances of reaction with and without sample, respectively. Diprotin A was employed as a positive control, and the results were presented as the IC50 value.

[2] = tested on: LPS-induced raw 264.7 cells; experiment: Nitric oxide production in LPS-induced raw 264.7 cells (Griess assay); type: cell-based, murine; settings: 200 ng/mL LPS, 24 h, Figure 5
Method: The investigation of the inhibitory activities against LPS induced nitric oxide (NO) production of crude extract, partitioned fractions, and isolated compounds by Griess assay, which was accomplished as described by Kaewdana et al.. Briefly, Raw264.7 cells were seeded, at the density of 1 × 10^5 cells/well, in 96-well plates. After 1–2 h culture, the medium was changed and co-treated with different concentrations of samples and 200 ng/mL LPS for 24 h. After that, the nitrite-containing medium was equally mixed with the Griess reagent (1% sulfanilamide in 5% phosphoric acid and 0.1% naphthyl ethylenediamine dihydrochloride (NED) in water) and measured by a microplate reader at 570 nm. Indomethacin (a nonsteroidal anti-inflammatory drug) was used as a positive control. Results were shown as the percentage of inhibition calculated, following the equation: [(Acontrol − Asample)/Acontrol] × 100.

3T3-L1 adipocytes = experiment: Glucose uptake assay in differentiated 3T3-L1 adipocytes (GO kit); type: cell-based, mouse; settings: for glucose uptake stimulation: positive control
Method: The 3T3-L1 pre-adipocytes were induced to differentiate into adult adipocytes after 48 h of confluence in 48 wells plate. The cells were incubated with cultured media, comprising of 1 µg/mL insulin, 10 µM dexamethasone, and 0.5 mM IBMX. After 48 h of incubation, differentiate media were removed and replaced with cultured media containing 1 µg/mL insulin. Then, the maintained media were changed every two days for eight days.
The glucose uptake stimulatory effect of crude extract, partitioned fractions, and isolated compounds was determined by the previously described method [60]. Briefly, differentiated adipocytes were grown in 48-well plates, with cultured media containing 2% FBS, for 18 h. Then, the cells were washed and treated with various concentrations of samples in a complete low glucose medium. After 24 h of incubation, the treated medium of samples was individually transferred into 96-well plates and mixed with the reagent of the GO kit at 37 °C for 30 min. The reaction was terminated by 6M H2SO4, and the absorbance of remaining glucose at 540 nm was recorded by a microplate reader. The ability to enhance glucose uptake was measured by the amount of glucose in the media. The percentage of glucose uptake stimulation was calculated by following equation: %stimulation = [(Acontrol − Asample)/Acontrol] × 100, where Acontrol and Asample were the absorbances of reaction with and without sample, respectively.

[3] = biological target: T2, α-glucosidase from Saccharomyces cerevisiae (Saccharomyces cerevisiae, UniProt P53341); experiment: α-Glucosidase inhibitory assay (pNPG substrate); type: biochemical; settings: for IC50: IC50 α-Glucosidase
T2 construct: purchased Sigma Aldrich Inc. (St. Louis, MO. USA)
T2 sequence (P53341 whole entry): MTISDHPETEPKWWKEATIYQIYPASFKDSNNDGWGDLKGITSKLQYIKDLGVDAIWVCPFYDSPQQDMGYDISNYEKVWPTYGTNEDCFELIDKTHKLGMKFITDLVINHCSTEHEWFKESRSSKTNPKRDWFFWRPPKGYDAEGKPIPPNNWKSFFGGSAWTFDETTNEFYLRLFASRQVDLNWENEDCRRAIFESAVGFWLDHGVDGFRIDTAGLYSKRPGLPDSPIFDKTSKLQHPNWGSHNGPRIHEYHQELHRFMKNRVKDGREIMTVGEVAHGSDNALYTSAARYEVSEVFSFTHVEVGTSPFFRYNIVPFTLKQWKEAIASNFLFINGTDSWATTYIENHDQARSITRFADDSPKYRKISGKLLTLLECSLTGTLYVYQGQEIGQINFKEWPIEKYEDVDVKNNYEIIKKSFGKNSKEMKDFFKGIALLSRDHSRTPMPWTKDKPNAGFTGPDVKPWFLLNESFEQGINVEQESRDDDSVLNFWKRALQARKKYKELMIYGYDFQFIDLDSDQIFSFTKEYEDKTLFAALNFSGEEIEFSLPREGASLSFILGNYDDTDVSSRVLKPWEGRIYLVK
Excerpt: as §1
The inhibitory effects against α-glucosidase enzyme of crude extract, partitioned fractions, and all isolated pure compounds were examined according to previous assay. In brief, 50 µL of each sample in 50 mM phosphate buffer, pH 6.9 (at various concentrations), was pre-mixed with 50 µL of 0.57 U/mL α-glucosidase enzyme for 10 min at 37 °C. Then, 50 µL of 5 mM pNPG substrate was added into the mixture and further incubated for 30 min, after that stopping the reaction by 50 µL of 1 M sodium carbonate solution (Na2CO3). A microplate reader (DTX880 Multimode Detector, Beckman Coulter®, Wien, Austria) immediately measured the absorbance at 405 nm. The following equation calculated the percentage of inhibition: [(Acontrol − Asample)/Acontrol] × 100, where Acontrol and Asample were the absorbance of reaction without and with the sample, respectively.

α-glucosidase = biological target: α-glucosidase; set-up: method as in earlier work; settings: known active flavonoids from B. strychnifolia stem; cited from earlier work
[4] = molar value, in parentheses in Table 3

In the case of `O=c1c(O)c(-c2ccc(O)c(O)c2)oc2cc(O)cc(O)c12` [Quercetin], the IC50 [1] is reported as 8.24 µM, the IC50 [1, 4] is reported as 8.25 µM and the “effect on NO production (in words)” value [2] is reported as “no effect”. For the same compound, the “glucose uptake stimulation effect (in words)” value (3T3-L1 adipocytes; Figure 4) was “higher glucose uptake stimulation effect than resveratrol, gallic acid, and epicatechin”.

With `Oc1cc(O)c2c(c1)O[C@H](c1ccc(O)c(O)c1)[C@H](O)C2` [Epicatechin] the IC50 [1] was > 50 µM, the IC50 [1, 4] was > 50 µM and the “effect on NO production (in words)” value [2] was “inhibitory effect on NO production at only high concentrations”. For the same compound, the “α-glucosidase inhibitory ability (in words)” value [3] was “no effect”.

In the case of `CN(C)C(=N)N=C(N)N` [metformin, reference compound], the glucose uptake stimulation (3T3-L1 adipocytes; 2 mM) is reported as 85.34%.

With `COc1ccc2c(c1)c(CC(=O)O)c(C)n2C(=O)c1ccc(Cl)cc1` [Indomethacin, indomethacin, reference compound] the “effect on NO production (in words)” value [2] was “potent anti-inflammatory”.

With `Oc1ccc(/C=C/c2cc(O)cc(O)c2)cc1` [Resveratrol] the IC50 [1] was 14.1 µM, the IC50 [1, 4] was 14.1 µM and the “effect on NO production (in words)” value [2] was “inhibitory effect on NO production at only high concentrations”.

For `O=C(O)c1cc(O)c(O)c(O)c1` [Gallic acid], the IC50 [1] was > 50 µM, the IC50 [1, 4] was > 50 µM and the “effect on NO production (in words)” value [2] was “inhibitory effect on NO production at only high concentrations”. For the same compound, the “α-glucosidase inhibitory ability (in words)” value [3] was “no effect”, the IC50 [3] was > 25 µM and the IC50 [3, 4] was > 25 µM.

For `C[C@@H]1O[C@@H](Oc2coc3cc(O)cc(O)c3c2=O)[C@H](O)[C@H](O)[C@H]1O` [3,5,7-Trihydroxychromone-3-O-α-L-rhamnopyranoside], the “IC50 α-glucosidase inhibitory effect” value (α-glucosidase) is listed as 540 µg/mL (≈ 1590 µM).

In the case of insulin, the glucose uptake stimulation (3T3-L1 adipocytes; 100 nM) is reported as 92.81%.
